Read-outs that look alike come from different tables or passages of the source.
Legend:
[1] = system: SNB-75; test: In-Vitro Testing SRB panel: CNS Cancer; format: cell-based
[2] = Preliminary toxicology, subcutaneous injection for 14 days; format: in vivo, CD-1 female mice; conditions: CD-1 female mice; 80 mg/kg/day s.c. 14 days
Description: The toxicological effects of CLT, and compounds 28, 30 and 31 were tested in CD-1 female mice. A dose of 80 mg/kg/day was given to each mouse via subcutaneous injection for a period of 14 days. Preliminary toxicological data was determined by measuring body weight, gross pathology of organs blood chemistry and histology. The vehicle used was DMF 12%+2% Tween 20 88%.

[3] = system: CARI-1; test: In-Vitro Testing SRB panel: Renal Cancer; format: cell-based
[4] = system: SF-295; test: In-Vitro Testing SRB panel: CNS Cancer; format: cell-based
[5] = system: TK-10; test: In-Vitro Testing SRB panel: Renal Cancer; format: cell-based
[6] = system: CCRF-CEM; test: In-Vitro Testing SRB panel: Leukemia; format: cell-based
[7] = system: KM12; test: In-Vitro Testing SRB panel: Colon Cancer; format: cell-based
[8] = system: K-562; test: In-Vitro Testing SRB panel: Leukemia; format: cell-based
[9] = system: NCI-H460; format: cell-based
[10] = system: ROP-92; format: cell-based
[11] = system: A549/ATCC; format: cell-based
[12] = system: BT-549; test: In-Vitro Testing SRB panel: Breast Cancer; format: cell-based
[13] = system: squamous cell carcinoma (KLN-205) cells; test: Tumor growth in murine squamous cell carcinoma model; format: in vivo, mouse; conditions: KLN-205; subcutaneous injection or oral administration of 80 mg/kg/day for 30 days
[14] = system: H209 small lung cell carcinoma; test: Mouse xenograft tumor growth; format: in vivo, SCID mice
[15] = system: DU-145; test: In-Vitro Testing SRB panel: Prostate Cancer; format: cell-based
[16] = system: NCI-H522; format: cell-based

## COc1ccc2c(c1)CN(C(=O)c1ccc([N+](=O)[O-])cc1)c1ccc(Cl)cc1C2c1ccccc1Cl (stereo not drawn) [Compound 30]
[1]; Homo sapiens, SNB-75
  GI50: 4.52 µM
[1]; Homo sapiens, SNB-75, read-out: LC50 (the source's name)
  CC50: > 100 µM
[1]; SNB-75
  TGI: >1.00E−04 Molar
[1]; SNB-75, Log10 concentration −4.0 Molar
  Percent Growth: 25%
[1]; SNB-75, Log10 concentration −5.0 Molar
  Percent Growth: 32%
[1]; SNB-75, Log10 concentration −6.0 Molar
  Percent Growth: 83%
[1]; SNB-75, Log10 concentration −7.0 Molar
  Percent Growth: 103%
[1]; SNB-75, Log10 concentration −8.0 Molar
  Percent Growth: 99%
[2]
  Body Weight Change: 108%
  Liver Weight: 1.52 ± 0.23 g
  RBC: 8.2 ± 0.2 10^6/mm^3
  WBC: 6.4 ± 1.7 10^3/mm^3
  WBC, RBC, BUN and creatine levels: no differences were found
[3]; CARI-1
  TGI: >1.00E−04 Molar
[3]; CARI-1, Log10 concentration −4.0 Molar
  Percent Growth: 59%
[3]; CARI-1, Log10 concentration −5.0 Molar
  Percent Growth: 68%
[3]; CARI-1, Log10 concentration −6.0 Molar
  Percent Growth: 71%
[3]; CARI-1, Log10 concentration −7.0 Molar
  Percent Growth: 108%
[3]; CARI-1, Log10 concentration −8.0 Molar
  Percent Growth: 141%
[3]; Homo sapiens
  GI50: > 100 µM
[3]; Homo sapiens, CARI-1, read-out: LC50 (the source's name)
  CC50: > 100 µM
[4]; Homo sapiens, SF-295
  GI50: 6.49 µM
[4]; Homo sapiens, SF-295, read-out: LC50 (the source's name)
  CC50: > 100 µM
[4]; SF-295
  TGI: >1.00E−04 Molar
[4]; SF-295, Log10 concentration −4.0 Molar
  Percent Growth: 32%
[4]; SF-295, Log10 concentration −5.0 Molar
  Percent Growth: 41%
[4]; SF-295, Log10 concentration −6.0 Molar
  Percent Growth: 88%
[4]; SF-295, Log10 concentration −7.0 Molar
  Percent Growth: 104%
[4]; SF-295, Log10 concentration −8.0 Molar
  Percent Growth: 93%
[5]; Homo sapiens, TK-10
  GI50: 27 µM
[5]; Homo sapiens, TK-10, read-out: LC50 (the source's name)
  CC50: > 100 µM
[5]; TK-10
  TGI: >1.00E−04 Molar
[5]; TK-10, Log10 concentration −4.0 Molar
  Percent Growth: 41%
[5]; TK-10, Log10 concentration −5.0 Molar
  Percent Growth: 57%
[5]; TK-10, Log10 concentration −6.0 Molar
  Percent Growth: 93%
[5]; TK-10, Log10 concentration −7.0 Molar
  Percent Growth: 101%
[5]; TK-10, Log10 concentration −8.0 Molar
  Percent Growth: 100%
[6]
  TGI: >1.00E−04 Molar
[6]; Homo sapiens
  GI50: 1.85 µM
[6]; Homo sapiens, read-out: LC50 (the source's name)
  CC50: > 100 µM
[6]; Log10 concentration −4.0 Molar
  Percent Growth: 39%
[6]; Log10 concentration −5.0 Molar
  Percent Growth: 22%
[6]; Log10 concentration −6.0 Molar
  Percent Growth: 60%
[6]; Log10 concentration −7.0 Molar
  Percent Growth: 70%
[6]; Log10 concentration −8.0 Molar
  Percent Growth: 73%
[7]; Homo sapiens, KM12
  GI50: 3.06 µM
[7]; Homo sapiens, KM12, RM12, read-out: LC50 (the source's name)
  CC50: > 100 µM
[7]; RM12
  TGI: >1.00E−04 Molar
[7]; RM12, Log10 concentration −4.0 Molar
  Percent Growth: 36%
[7]; RM12, Log10 concentration −5.0 Molar
  Percent Growth: 41%
[7]; RM12, Log10 concentration −6.0 Molar
  Percent Growth: 59%
[7]; RM12, Log10 concentration −7.0 Molar
  Percent Growth: 91%
[7]; RM12, Log10 concentration −8.0 Molar
  Percent Growth: 95%
[8]; Homo sapiens, K562
  GI50: 1.33 µM
[8]; Homo sapiens, K562, K-562, read-out: LC50 (the source's name)
  CC50: > 100 µM
[8]; K-562
  TGI: >1.00E−04 Molar
[8]; K-562, Log10 concentration −4.0 Molar
  Percent Growth: 17%
[8]; K-562, Log10 concentration −5.0 Molar
  Percent Growth: 24%
[8]; K-562, Log10 concentration −6.0 Molar
  Percent Growth: 54%
[8]; K-562, Log10 concentration −7.0 Molar
  Percent Growth: 86%
[8]; K-562, Log10 concentration −8.0 Molar
  Percent Growth: 99%
[9]; Homo sapiens, NCI-H460
  GI50: 2.12 µM
[9]; Homo sapiens, NCI-H460, read-out: LC50 (the source's name)
  CC50: > 100 µM
[9]; NCI-H460
  TGI: >1.00E−04 Molar
[9]; NCI-H460, Log10 concentration −4.0 Molar
  Percent Growth: 20%
[9]; NCI-H460, Log10 concentration −5.0 Molar
  Percent Growth: 16%
[9]; NCI-H460, Log10 concentration −6.0 Molar
  Percent Growth: 67%
[9]; NCI-H460, Log10 concentration −7.0 Molar
  Percent Growth: 97%
[9]; NCI-H460, Log10 concentration −8.0 Molar
  Percent Growth: 91%
[10]; Homo sapiens
  GI50: > 100 µM
[10]; Homo sapiens, ROP-92, read-out: LC50 (the source's name)
  CC50: > 100 µM
[10]; ROP-92
  TGI: >1.00E−04 Molar
[10]; ROP-92, Log10 concentration −4.0 Molar
  Percent Growth: 58%
[10]; ROP-92, Log10 concentration −5.0 Molar
  Percent Growth: 69%
[10]; ROP-92, Log10 concentration −6.0 Molar
  Percent Growth: 93%
[10]; ROP-92, Log10 concentration −7.0 Molar
  Percent Growth: 102%
[10]; ROP-92, Log10 concentration −8.0 Molar
  Percent Growth: 91%
[11]; A549/ATCC
  TGI: >1.00E−04 Molar
[11]; A549/ATCC, Log10 concentration −4.0 Molar
  Percent Growth: 23%
[11]; A549/ATCC, Log10 concentration −5.0 Molar
  Percent Growth: 25%
[11]; A549/ATCC, Log10 concentration −6.0 Molar
  Percent Growth: 81%
[11]; A549/ATCC, Log10 concentration −7.0 Molar
  Percent Growth: 96%
[11]; A549/ATCC, Log10 concentration −8.0 Molar
  Percent Growth: 96%
[11]; Homo sapiens, A549
  GI50: 3.57 µM
[11]; Homo sapiens, A549/ATCC, read-out: LC50 (the source's name)
  CC50: > 100 µM
[12]; BT-549
  TGI: >1.00E−04 Molar
[12]; BT-549, Log10 concentration −4.0 Molar
  Percent Growth: 61%
[12]; BT-549, Log10 concentration −5.0 Molar
  Percent Growth: 75%
[12]; BT-549, Log10 concentration −6.0 Molar
  Percent Growth: 90%
[12]; BT-549, Log10 concentration −7.0 Molar
  Percent Growth: 99%
[12]; BT-549, Log10 concentration −8.0 Molar
  Percent Growth: 95%
[12]; Homo sapiens, BT-549
  GI50: > 100 µM
[12]; Homo sapiens, BT-549, read-out: LC50 (the source's name)
  CC50: > 100 µM
[13]
  tumor growth: significantly inhibited tumor growth
[14]
  tumor growth: showed inhibition of tumor growth
[15]; DU-145
  TGI: >1.00E−04 Molar
[15]; DU-145, Log10 concentration −4.0 Molar
  Percent Growth: 31%
[15]; DU-145, Log10 concentration −5.0 Molar
  Percent Growth: 38%
[15]; DU-145, Log10 concentration −6.0 Molar
  Percent Growth: 95%
[15]; DU-145, Log10 concentration −7.0 Molar
  Percent Growth: 98%
[15]; DU-145, Log10 concentration −8.0 Molar
  Percent Growth: 98%
[15]; Homo sapiens, DU-145
  GI50: 6.24 µM
[15]; Homo sapiens, DU-145, read-out: LC50 (the source's name)
  CC50: > 100 µM
[16]; Homo sapiens, NCI-H522
  GI50: 0.76 µM
[16]; Homo sapiens, NCI-H522, read-out: LC50 (the source's name)
  CC50: > 100 µM
[16]; NCI-H522
  TGI: 6.10E−05 Molar
[16]; NCI-H522, Log10 concentration −4.0 Molar
  Percent Growth: −9%
[16]; NCI-H522, Log10 concentration −5.0 Molar
  Percent Growth: 19%
[16]; NCI-H522, Log10 concentration −6.0 Molar
  Percent Growth: 42%
[16]; NCI-H522, Log10 concentration −7.0 Molar
  Percent Growth: 113%
[16]; NCI-H522, Log10 concentration −8.0 Molar
  Percent Growth: 114%

— US6992079B2, “Substituted 11-phenyl-dibenzazepine compounds useful for the treatment or prevention of diseases characterized by abnormal cell proliferation” (President Fellows of Harvard College, priority 1997, dated 2006)
